Reference: patent USRE38117E1, “Trioxane dimer compound having antiproliferative and antitumor activities” (Hauser, Inc., priority 1995, dated 2003)

Columns and labels:
Assay type in all cases: cell-based
MDA-MB231/ATCC = assay: NCI 60 cell line screen (SRB), Breast Cancer
IGROVI = assay: NCI 60 cell line screen (SRB), Ovarian Cancer
RXF 393 = assay: NCI 60 cell line screen (SRB), Renal Cancer; conditions: RXF 393 (Renal Cancer)
NCI-H226 = assay: NCI 60 cell line screen (SRB), Non-Small Cell Lung Cancer
CAKI-1 = assay: NCI 60 cell line screen (SRB), Renal Cancer; conditions: CAKI-1 (Renal Cancer)
BT-549 = assay: NCI 60 cell line screen (SRB), Breast Cancer; conditions: BT-549 (Breast Cancer)
MOLT-4 = assay: NCI 60 cell line screen (SRB), Leukemia
SR = assay: NCI 60 cell line screen (SRB), Leukemia
OVCAR-8 = assay: NCI 60 cell line screen (SRB), Ovarian Cancer; conditions: OVCAR-8 (Ovarian Cancer)
MDA-MB-435 = assay: NCI 60 cell line screen (SRB), Breast Cancer; conditions: MDA-MB-435 (Breast Cancer)
OVCAR-3 = assay: NCI 60 cell line screen (SRB), Ovarian Cancer; conditions: OVCAR-3 (Ovarian Cancer)
SK-MEL-28 = assay: NCI 60 cell line screen (SRB), Melanoma; conditions: SK-MEL-28 (Melanoma)
60 cell line panel = assay: NCI 60 cell line screen, values over the whole panel; conditions: mean value over the cell line panel
HCT-116 = assay: NCI 60 cell line screen (SRB), Colon Cancer; conditions: HCT-116 (Colon Cancer)
UACC-62 = assay: NCI 60 cell line screen (SRB), Melanoma; conditions: UACC-62 (Melanoma)
ACHN = assay: NCI 60 cell line screen (SRB), Renal Cancer
MALME-3M = assay: NCI 60 cell line screen (SRB), Melanoma; conditions: MALME-3M (Melanoma)
SW-620 = assay: NCI 60 cell line screen (SRB), Colon Cancer; conditions: SW-620 (Colon Cancer)
MCF7 = assay: NCI 60 cell line screen (SRB), Breast Cancer
K-562 = assay: NCI 60 cell line screen (SRB), Leukemia; conditions: K-562 (Leukemia)
PC-3 = assay: NCI 60 cell line screen (SRB), Prostate Cancer; conditions: PC-3 (Prostate Cancer)
RPMI-8226 = assay: NCI 60 cell line screen (SRB), Leukemia; conditions: RPMI-8226 (Leukemia)
SF-295 = assay: NCI 60 cell line screen (SRB), CNS Cancer; conditions: SF-295 (CNS Cancer)
MCF7/ADR-RES = assay: NCI 60 cell line screen (SRB), Breast Cancer
OVCAR-5 = assay: NCI 60 cell line screen (SRB), Ovarian Cancer; conditions: OVCAR-5 (Ovarian Cancer)
HOP-62 = assay: NCI 60 cell line screen (SRB), Non-Small Cell Lung Cancer; conditions: HOP-62 (Non-Small Cell Lung Cancer)
SK-OV-3 = assay: NCI 60 cell line screen (SRB), Ovarian Cancer; conditions: SK-OV-3 (Ovarian Cancer)
NCI-H460 = assay: NCI 60 cell line screen (SRB), Non-Small Cell Lung Cancer
SF-268 = assay: NCI 60 cell line screen (SRB), CNS Cancer; conditions: SF-268 (CNS Cancer)
NCI-H23 = assay: NCI 60 cell line screen (SRB), Non-Small Cell Lung Cancer
LOX IMVI = assay: NCI 60 cell line screen (SRB), Melanoma
SF-539 = assay: NCI 60 cell line screen (SRB), CNS Cancer; conditions: SF-539 (CNS Cancer)
UO-31 = assay: NCI 60 cell line screen (SRB), Renal Cancer; conditions: UO-31 (Renal Cancer)
[1] = MOLT-4 (Leukemia), listed as Metaphtalate Dimer
[2] = MOLT-4 (Leukemia), listed as metaphthalate dimer

With `COC1OC2(C)CCC3CCCC(CCOC(=O)c4cccc(C(=O)OCCC5CCCC6CCC7(C)OOC56C(OC)O7)c4)C31OO2` (centres unmarked) [Compound 10, Trioxane Bis-ester Dimer] the Log10GI50 (MDA-MB231/ATCC) was −5.27 M, the Log10LC50 (MDA-MB231/ATCC) was >−4.30 M and the Log10TGI (MDA-MB231/ATCC) was >−4.30 M. For the same compound, the Log10GI50 (IGROVI) was −5.34 M, the Log10LC50 (IGROVI) was >−4.30 M and the Log10TGI (IGROVI) was −4.42 M. For the same compound, the Log10GI50 (RXF 393) was >−4.30 M, the Log10LC50 (RXF 393) was >−4.30 M and the Log10TGI (RXF 393) was >−4.30 M. For the same compound, the Log10GI50 (NCI-H226) was −5.64 M, the Log10LC50 (NCI-H226) was >−4.30 M and the Log10TGI (NCI-H226) was >−4.30 M. For the same compound, the Log10GI50 (CAKI-1) was −5.66 M, the Log10LC50 (CAKI-1) was >−4.30 M and the Log10TGI (CAKI-1) was >−4.30 M. For the same compound, the Log10GI50 (BT-549) was −5.47 M, the Log10LC50 (BT-549) was >−4.30 M and the Log10TGI (BT-549) was >−4.30 M. The Log10GI50 (MOLT-4; MOLT-4 (Leukemia)) was −7.68 M, the Log10LC50 (MOLT-4; [1]) was >−4.30 M and the Log10TGI (MOLT-4; [1]) was −6.53 M. The Log10LC50 (MOLT-4; [2]) was −4.05 M, the Log10TGI (MOLT-4; [2]) was −5.80 M and the “drug concentration necessary to achieve primary growth inhibition (percentage growth +50)” value (MOLT-4; MOLT-4, read from dose response curves FIGS. 10a-10e) was “less than 10^−7 molar”. The Log10GI50 (SR) was <−8.30 M, the Log10LC50 (SR) was >−4.30 M and the Log10TGI (SR) was −7.49 M. For the same compound, the Log10GI50 (OVCAR-8) was −6.13 M, the Log10LC50 (OVCAR-8) was >−4.30 M and the Log10TGI (OVCAR-8) was >−4.30 M. The Log10GI50 (MDA-MB-435) was −5.93 M, the Log10LC50 (MDA-MB-435) was >−4.30 M and the Log10TGI (MDA-MB-435) was >−4.30 M. The Log10GI50 (OVCAR-3) was −5.53 M, the Log10LC50 (OVCAR-3) was >−4.30 M and the Log10TGI (OVCAR-3) was >−4.30 M. For the same compound, the Log10GI50 (SK-MEL-28) was −4.94 M, the Log10LC50 (SK-MEL-28) was >−4.30 M and the Log10TGI (SK-MEL-28) was >−4.30 M. The “Log10GI50 MG MID” value (60 cell line panel) was −5.77 M, the “Log10LC50 MG MID” value (60 cell line panel) was −4.30 M and the “Log10TGI MG MID” value (60 cell line panel) was −4.52 M. The Log10GI50 (HCT-116) was −6.43 M, the Log10LC50 (HCT-116) was >−4.30 M and the Log10TGI (HCT-116) was >−4.30 M. The Log10GI50 (UACC-62) was −5.68 M, the Log10LC50 (UACC-62) was >−4.30 M and the Log10TGI (UACC-62) was >−4.30 M. For the same compound, the Log10GI50 (ACHN) was −5.85 M, the Log10LC50 (ACHN) was >−4.30 M and the Log10TGI (ACHN) was >−4.30 M. The Log10GI50 (MALME-3M) was −5.56 M, the Log10LC50 (MALME-3M) was >−4.30 M and the Log10TGI (MALME-3M) was >−4.30 M. For the same compound, the Log10GI50 (SW-620) was −6.47 M, the Log10LC50 (SW-620) was >−4.30 M and the Log10TGI (SW-620) was >−4.30 M. For the same compound, the Log10GI50 (MCF7) was −5.92 M, the Log10LC50 (MCF7) was >−4.30 M and the Log10TGI (MCF7) was >−4.30 M. The Log10GI50 (K-562) was −6.79 M, the Log10LC50 (K-562) was >−4.30 M and the Log10TGI (K-562) was −5.35 M. For the same compound, the Log10GI50 (PC-3) was −7.09 M, the Log10LC50 (PC-3) was >−4.30 M and the Log10TGI (PC-3) was >−4.30 M. For the same compound, the Log10GI50 (RPMI-8226) was −6.97 M, the Log10LC50 (RPMI-8226) was >−4.30 M and the Log10TGI (RPMI-8226) was −5.73 M. For the same compound, the Log10GI50 (SF-295) was −5.01 M, the Log10LC50 (SF-295) was >−4.30 M and the Log10TGI (SF-295) was >−4.30 M. For the same compound, the Log10GI50 (MCF7/ADR-RES) was −5.36 M, the Log10LC50 (MCF7/ADR-RES) was >−4.30 M and the Log10TGI (MCF7/ADR-RES) was >−4.0 M. For the same compound, the Log10GI50 (OVCAR-5) was −5.68 M, the Log10LC50 (OVCAR-5) was >−4.30 M and the Log10TGI (OVCAR-5) was >−4.30 M. The Log10GI50 (HOP-62) was −5.11 M, the Log10LC50 (HOP-62) was >−4.30 M and the Log10TGI (HOP-62) was >−4.30 M. The Log10LC50 (SK-OV-3) was >−4.30 M, the Log10TGI (SK-OV-3) was >−4.30 M and the Log10GI50 (NCI-H460) was −5.76 M. For the same compound, the Log10LC50 (NCI-H460) was >−4.30 M, the Log10TGI (NCI-H460) was >−4.30 M and the Log10GI50 (SF-268) was −5.36 M. For the same compound, the Log10LC50 (SF-268) was >−4.30 M, the Log10TGI (SF-268) was >−4.30 M and the Log10GI50 (NCI-H23) was −6.29 M. For the same compound, the Log10LC50 (NCI-H23) was >−4.30 M, the Log10TGI (NCI-H23) was >−4.30 M and the Log10GI50 (LOX IMVI) was −6.27 M. For the same compound, the Log10LC50 (LOX IMVI) was >−4.30 M, the Log10TGI (LOX IMVI) was >−4.30 M and the Log10GI50 (SF-539) was −6.11 M. For the same compound, the Log10LC50 (SF-539) was >−4.30 M, the Log10TGI (SF-539) was >−4.30 M and the Log10GI50 (UO-31) was −5.96 M. The Log10LC50 (UO-31) was >−4.30 M and the Log10TGI (UO-31) was >−4.30 M.
